Results from US8663616B2, “Enzymatic peracid generation for use in oral care products” (E I du Pont de Nemours and Company, priority 2010, dated 2014).

Key:
[1] = biological target: T1, C277S (SEQ ID NO: 424) (Thermotoga maritima, UniProt Q9WXT2, C277S); assay type: biochemical; conditions: 100 mM ester, 60 mM H2O2, 40 ppm enzyme, 95 mM phosphate pH 7.2, 37° C.
T1 construct: made in house; host or cells: E. coli
Description: (§1) To test various enzymes against an ester substrate, it was convenient to run up to 4 reactions simultaneously by staggering the beginning of each individual reaction by 0.5-1 min. Each individual reaction was performed in a glass vessel (height: 76 mm; o.d.: 33 mm; i.d.: 24 mm) equipped with a magnetic stirring bar. Four reaction vessels were banded together and kept at constant temperature in a jacketed one-liter, stainless steel, tempering beaker (KGW IsoTherm, # TSS-G 1000W) with circulating water controlled by a Thermo NesLab recirculation bath (Model # RTE-7 Digital One). Buffer (6 mL, 100 mM sodium phosphate buffer, pH 7.2) was added to each reaction vessel and allowed to equilibrate to 37° C. The ester substrate of interest was added to achieve 100 mM concentration. […] To follow the production of peracetic acid, 80 μL samples from each reaction were removed at specific intervals from 1 to 15 minutes. The sample was immediately quenched in a microfuge filter tube (NanoSep 30K VWR cat #82031-354) containing a volume and concentration of phosphoric acid solution that was sufficient to stop the enzymatic reaction (by lowering the pH between 2 and 3) and to dilute the sample for convenient HPLC analyses. The acid-quenched samples were centrifuged for 5 minutes to remove any particulates.

[2] = biological target: T2, C277T (SEQ ID NO: 437) (Thermotoga maritima, UniProt Q9WXT2, C277T); assay type: biochemical; conditions: 100 mM ester, 60 mM H2O2, 40 ppm enzyme, 95 mM phosphate pH 7.2, 37° C.
T2 construct: made in house; host or cells: E. coli
Description: as §1

[3] = biological target: T3, C277T/R296P (SEQ ID NO: 476) (Thermotoga maritima, UniProt Q9WXT2, C277T/R296P); assay type: biochemical; conditions: 100 mM ester, 60 mM H2O2, 40 ppm enzyme, 95 mM phosphate pH 7.2, 37° C.
T3 construct: made in house; host or cells: E. coli
Description: as §1

[4] = biological target: T4, Wild Type (SEQ ID NO: 16) (Thermotoga maritima, UniProt Q9WXT2); assay: Maximum peracetic acid from ester substrates with wild type perhydrolase (Example 14); assay type: biochemical; conditions: 100 mM ester, 60 mM H2O2, 40 ppm enzyme, 95 mM phosphate pH 7.2, 37° C.
T4 construct: made in house; host or cells: E. coli
T4 sequence (Q9WXT2 1-325): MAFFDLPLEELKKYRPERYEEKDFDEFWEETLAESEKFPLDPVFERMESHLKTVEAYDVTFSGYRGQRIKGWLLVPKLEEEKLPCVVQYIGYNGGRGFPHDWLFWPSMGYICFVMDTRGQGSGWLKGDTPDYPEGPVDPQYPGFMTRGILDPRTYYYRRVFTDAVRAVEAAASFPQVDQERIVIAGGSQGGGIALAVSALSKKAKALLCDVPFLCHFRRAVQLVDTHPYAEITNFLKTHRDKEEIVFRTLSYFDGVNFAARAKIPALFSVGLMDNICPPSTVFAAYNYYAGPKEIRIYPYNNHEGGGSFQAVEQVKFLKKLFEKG
Description: as §1

[5] = Bleaching of coffee-tea stained bovine enamel with EZ-1 and various ester substrates (Example 15); design: Whiteness Index Treatment 0 / Whiteness Index Treatment 1 / Whiteness Index Treatment 2 / Whiteness Index Treatment 3 / ΔWI: scale not given here; conditions: for Whiteness Index Treatment 1: after 1 x 30 min treatment; for Whiteness Index Treatment 2: after 2 x 30 min treatments; for Whiteness Index Treatment 3: after 3 x 30 min treatments; for Whiteness Index Treatment 0: before treatment, 40 ppm EZ-1, 100 mM substrate, H2O2 100 mM (TA), 360 mM (PGDA, SOC), 60 mM (GPA), pH 7.2, control 9% H2O2 pH 5.3 without enzyme; for change in whiteness index (in words): enzymatically generated peracetic acid with EZ-1, each successive treatment; for ΔWI: treatment 0 to treatment 3
Description: The optimal conditions used for the generation of peracetic acid with each substrate were derived from the studies in Example 14 and are listed below as follows:
Bovine enamel incisors were prepared as indicated in Example 1. The stained enamel blocks were placed in a 24 well plate with the dentin side facing down and hydrated overnight in phosphate buffer, pH 7.2. Prior to treatment, a color measurement of each tooth was performed using a Konica-Minolta 2600d spectrophotometer and whiteness index was calculated as specified in Example 1.
Each enzyme solution was prepared in a 1.5-mL microfuge tube (Eppendorf, #2243102-1) and 1 mL of the solution was immediately transferred to the 24 well plate containing the pre-hydrated teeth. The control samples consisted of 100 mM phosphate buffer, pH 7.2 and 9% H2O2 in 100 mM citrate/phosphate buffer, pH 5.3. The teeth were incubated at room temperature for 30 minutes, removed, rinsed with 100 mM phosphate, pH 7.2 and a color measurement was taken. The teeth were placed back into the 24 well plate at which time fresh enzyme solutions were prepared and added to each well. This process was repeated for a total of 3 whitening treatments; 30 min per treatment (Table 22).

T3 sequence (Q9WXT2 whole entry C277T/R296P): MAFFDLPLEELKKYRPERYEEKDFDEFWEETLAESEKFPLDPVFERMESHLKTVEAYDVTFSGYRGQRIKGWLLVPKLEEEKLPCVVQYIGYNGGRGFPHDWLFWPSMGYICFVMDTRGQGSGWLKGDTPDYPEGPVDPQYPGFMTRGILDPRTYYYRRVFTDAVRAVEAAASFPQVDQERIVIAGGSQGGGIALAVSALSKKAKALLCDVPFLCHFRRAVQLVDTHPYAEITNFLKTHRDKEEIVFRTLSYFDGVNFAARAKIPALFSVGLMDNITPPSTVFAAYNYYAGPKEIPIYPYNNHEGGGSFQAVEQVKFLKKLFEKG
T2 sequence (Q9WXT2 whole entry C277T): as the sequence (Q9WXT2 whole entry C277T/R296P) above, with P296R counted along it
T1 sequence (Q9WXT2 whole entry C277S): as the sequence (Q9WXT2 whole entry C277T/R296P) above, with T277S, P296R counted along it

Compound | Maximum Peracetic Acid (PAA) (ppm), C277S (SEQ ID NO: 424) [1] | Maximum Peracetic Acid (PAA) (ppm), C277T (SEQ ID NO: 437) [2] | Maximum Peracetic Acid (PAA) (ppm), C277T/R296P (SEQ ID NO: 476) [3] | Maximum Peracetic Acid (PAA) (ppm), Wild Type (SEQ ID NO: 16) [4] | Whiteness Index Treatment 1 [5] | Whiteness Index Treatment 2 [5] | Whiteness Index Treatment 3 [5] | Whiteness Index Treatment 0 [5] | change in whiteness index (in words) [5] | ΔWI [5]
CC(=O)OCC(C)OC(C)=O (stereo not shown) [Propylene glycol diacetate] | 1128 ppm | 1245 ppm | 1202 ppm | 780 ppm | −108.0 | −80.9 | −80.1 | −181.4 | significant change in whiteness index | 101.3
CC(=O)OC[C@H]1O[C@@](COC(C)=O)(O[C@H]2O[C@H](COC(C)=O)[C@@H](OC(C)=O)[C@H](OC(C)=O)[C@H]2OC(C)=O)[C@@H](OC(C)=O)[C@@H]1OC(C)=O [Sucrose octaacetate] | 215 ppm | 493 ppm | 501 ppm | 304 ppm | −135.2 | −135.9 | −128.8 | −172.8 | significant change in whiteness index | 44.0
CC(=O)OC[C@H]1O[C@H](OC(C)=O)[C@@H](OC(C)=O)[C@@H](OC(C)=O)[C@@H]1OC(C)=O [α-D-mannopyranose pentaacetate] | 4017 ppm | 4212 ppm | 3752 ppm | 4023 ppm | – | – | – | – | – | –
CC(=O)OC[C@H]1O[C@@H](OC(C)=O)[C@H](OC(C)=O)[C@@H](OC(C)=O)[C@H]1OC(C)=O [β-D-galactose pentaacetate] | 2539 ppm | 2546 ppm | 1947 ppm | 764 ppm | – | – | – | – | – | –
CC(=O)O[C@@H]1O[C@H](CO)[C@@H](OC(C)=O)[C@H](OC(C)=O)[C@H]1OC(C)=O [β-D-glucopyranose,1,2,3,4-tetraacetate] | 2309 ppm | 2225 ppm | 2235 ppm | 2129 ppm | – | – | – | – | – | –
CC(=O)OC[C@H]1O[C@@H](OC(C)=O)[C@H](OC(C)=O)[C@@H](OC(C)=O)[C@@H]1OC(C)=O [β-D-glucose pentaacetate] | 2178 ppm | 2531 ppm | 1716 ppm | 1158 ppm | – | – | – | – | – | –
CC(=O)OC[C@H]1O[C@@H](OC(C)=O)[C@H](OC(C)=O)[C@H]1OC(C)=O [β-D-xylofuranose tetraacetate] | 3354 ppm | 3481 ppm | 3158 ppm | 2384 ppm | – | – | – | – | – | –
